The source of these data is US10322097B2, “Treatment of subjects with multidrug-resistant cancer” (priority 2015, dated 2019).

Test [1] relates to MDA-MB-231 pcDNA breast cancer cells. The experiment in a line: MTT cytotoxicity assay, MDA-MB-231 pcDNA. It counts as cell-based. To be noted: Homo sapiens, MDA-MB-231, 72 h, 3 days. The protocol:
(§1) Cell cultures and cytotoxicity assays have been used. Celastrol was dissolved in DMSO at a final concentration of 100 mmol/L and stored at −20° C. Cytotoxicity was assessed using the 3-(4,5-dimethylthiazol-2-yl)-2,5-diphenyltetrazolium bromide assay. 4000 cells from HEK293 and HEK293/ABCB5 kidney cancer cells or MDA-MB-231 pcDNA and MDA-MB-231/BCRP breast cancer cells were seeded on 96-well plates per well. After overnight pre-incubation, the cells were exposed to different concentrations of celastrol (0.1-10 μmol/L) for 3 days. Subsequently, 10 μL of MTT reagents were added to each well and incubated at 37° C. for 4 hours followed by the addition of 100 μL solubilization buffer (10% SDS in 0.01 mol/L HCl) and overnight incubation. Absorbance at 585 nm was determined from each well the next day. The percentage of cell viability was calculated using the following formula: Cell viability (%)=Cells number treated/Cells number DMSO control×100. Data were obtained from three independent experiments.
In general terms: Formazan colour is commonly taken as a measure of viable cells.

The test system of test [2] is MCF-7 (Breast) doxorubicin sensitive cancer cells. The experiment in a line: MTT cytotoxicity assay, MCF-7 doxorubicin sensitive. The following applies: Homo sapiens, MCF7, 72 h, read-out: IC50 MCF-7 (Breast) (Doxorubicin sensitive). It counts as cell-based. The method, then:
as §1, with “MCF-7 doxorubicin sensitive/resistant breast” for “HEK293 and HEK293/ABCB5 kidney”, “CEM doxorubicin sensitive/resistant leukemia” for “MDA-MB-231 pcDNA and MDA-MB-231/BCRP breast cancer”, “(0.039-100” for “(0.1-10”, “μmol/L) or doxorubicin” for “μmol/L)”

Test [3] relates to DLD-1 Bax-Bak+/+ colon cancer cells. Description: MTT cytotoxicity assay, DLD-1 Bax-Bak+/+. It counts as cell-based. The following applies: Homo sapiens, DLD-1, 72 h, read-out: IC50 DLD-1 Bax-Bak+/+ colon cancer cells. The protocol: Cell cultures and cytotoxicity assays have been used. Celastrol was dissolved in DMSO at a final concentration of 100 mmol/L and stored at −20° C. Cytotoxicity was assessed using the 3-(4,5-dimethylthiazol-2-yl)-2,5-diphenyltetrazolium bromide assay. 4000 cells from HCT116 p53^+/+ or p53^−/− colon cancer cells and DLD-1 Bax-Bak^+/+ or Bax-Bak^−/− colon cancer cells were seeded on 96-well plates per well. […] Subsequently, 10 μL of MTT reagents were added to each well and incubated at 37° C. for 4 hours followed by the addition of 100 μL solubilization buffer (10% SDS in 0.01 mol/L HCl) and overnight incubation. […] The percentage of cell viability was calculated using the following formula: Cell viability (%)=Cells number treated/Cells number DMSO control×100. Data were obtained from three independent experiments.

The test system of test [4] is HEK293/ABCB5 kidney cells. Description: MTT cytotoxicity assay, HEK293/ABCB5. It counts as cell-based. The method, then:
as §1

Test [5] deals with A2780 (Ovary) cisplatin resistant cancer cells. Description: MTT cytotoxicity assay, A2780 cisplatin resistant. The class given is cell-based, human. The method, then: as §1, with “A2780 cisplatin sensitive/resistant ovarian” for “HEK293 and HEK293/ABCB5 kidney”, “SGC-7901 cisplatin sensitive/resistant gastric” for “MDA-MB-231 pcDNA and MDA-MB-231/BCRP breast”, “(0.039-100” for “(0.1-10”, “μmol/L) or cisplatin” for “μmol/L)”

A further test concerns HEK293 kidney cells. The experiment in a line: MTT cytotoxicity assay, HEK293. It counts as cell-based. The following applies: Homo sapiens, HEK293, 72 h, 3 days. The method, then: as §1
For test [6], the system named is HCT-8 (Colon) taxol sensitive cancer cells. The experiment in a line: MTT cytotoxicity assay, HCT-8 taxol sensitive. The class given is cell-based. The following applies: Homo sapiens, HCT-8, 72 h, read-out: IC50 HCT-8 (Colon) (Taxol sensitive). The method, then:
as §1, with “from A549 (lung), A2780 (ovary), HCT-8 (colon)” for “from HEK293”, “and MCF-7 (breast)” for “and HEK293/ABCB5 kidney cancer cells or MDA-MB-231 pcDNA and MDA-MB-231/BCRP breast”, “celastrol (0.039-100” for “celastrol (0.1-10”, “μmol/L) or taxol” for “μmol/L)”, “reagents was” for “reagents were”

For test [7], the system named is MDA-MB-231/BCRP breast cancer cells. Description: MTT cytotoxicity assay, MDA-MB-231/BCRP. The class given is cell-based. The method, then: as §1

Structures are written as SMILES.

For `CC1=C(O)C(=O)C=C2C1=CC=C1[C@@]2(C)CC[C@@]2(C)[C@@H]3C[C@](C)(C(=O)O)CC[C@]3(C)CC[C@]12C` [Celastrol, celastrol], the IC50 in test [1] stood at 4830 nM; in test [2], 1130 nM; in test [3], 575 nM; in test [4] (Homo sapiens, HEK293, 72 h, MTT, 3 days), 3450 nM; in test [5] (Homo sapiens, A2780, 72 h, read-out: IC50 A2780 (Ovary) (Cisplatin resistant)), 543 nM; with HEK293 kidney cells, 3080 nM. For the same compound, the IC50 was determined as 937 nM in test [6] and 6190 nM in test [7] (MDA-MB-231/BCRP, 72 h, MTT, 3 days). The entries for the “Resistant Factor” value in test [4] (IC50 HEK293/ABCB5 divided by IC50 HEK293), in test [5] (A2780 cisplatin resistant versus cisplatin sensitive) and in test [7] (IC50 MDA-MB-231/BCRP divided by IC50 MDA-MB-231 pcDNA) were 1.12, 1.03 and 1.28, respectively.
